Results: patent US10947242B2, “[1,2,4]triazolo[1,5and#8208;A]pyrimidine compounds as PDE2 inhibitors” (Janssen Pharmaceutica NV, priority 2016, dated 2021)
“And” between values parts separate entries of the source, which are not always exact repeats. Equal entries are not always repeated. Where two headings read alike, the source gives them in different places.

Experiments:
[1] = molecular target: T1, PDE2A (Rattus norvegicus, UniProt Q01062); assay: PDE2 occupancy by test compounds, ex-vivo autoradiography with [3H]B-17a; type: in vivo, Male Wistar rats; details: for ED50: drug dose producing 50% receptor occupancy, read-out: PDE Occupancy ED50; for receptor occupancy at 10 mg/kg: percentage receptor occupancy, ex-vivo autoradiography, striatum
T1 construct: Twenty μm-thick striatal sections were cut; from tissue; host or cells: rat brain, striatal sections
T1 sequence (Q01062 1-928): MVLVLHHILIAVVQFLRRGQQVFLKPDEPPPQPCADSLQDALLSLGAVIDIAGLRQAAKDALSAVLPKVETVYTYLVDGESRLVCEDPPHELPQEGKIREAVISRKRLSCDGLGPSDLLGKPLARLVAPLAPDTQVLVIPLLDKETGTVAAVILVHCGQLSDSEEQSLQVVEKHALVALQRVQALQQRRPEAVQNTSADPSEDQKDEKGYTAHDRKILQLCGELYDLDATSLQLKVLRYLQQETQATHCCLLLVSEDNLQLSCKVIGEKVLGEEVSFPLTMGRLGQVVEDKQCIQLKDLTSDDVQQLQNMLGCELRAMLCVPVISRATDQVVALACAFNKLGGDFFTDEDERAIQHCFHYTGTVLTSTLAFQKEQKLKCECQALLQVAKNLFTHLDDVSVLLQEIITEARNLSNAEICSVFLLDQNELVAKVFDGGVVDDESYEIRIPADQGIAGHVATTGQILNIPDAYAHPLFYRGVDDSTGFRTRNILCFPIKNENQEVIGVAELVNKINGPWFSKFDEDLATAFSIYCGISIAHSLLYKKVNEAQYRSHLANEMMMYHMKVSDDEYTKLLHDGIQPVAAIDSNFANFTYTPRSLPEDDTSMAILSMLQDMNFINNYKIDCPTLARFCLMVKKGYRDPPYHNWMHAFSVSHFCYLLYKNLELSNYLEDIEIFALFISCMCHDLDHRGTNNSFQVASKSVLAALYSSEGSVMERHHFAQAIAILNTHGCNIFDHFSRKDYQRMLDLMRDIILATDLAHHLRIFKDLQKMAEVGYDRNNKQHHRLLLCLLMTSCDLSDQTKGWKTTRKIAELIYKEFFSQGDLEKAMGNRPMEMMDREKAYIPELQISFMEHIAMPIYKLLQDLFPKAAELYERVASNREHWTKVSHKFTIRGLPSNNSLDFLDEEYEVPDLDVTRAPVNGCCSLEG

[2] = molecular target: T2, Human recombinant PDE2A (hPDE2A) (Homo sapiens, UniProt O00408); assay: In vitro assay PDE2A (SPA, 3H-cGMP hydrolysis); type: biochemical; details: for Emax: read-out: hPDE2A Emax
T2 construct: His tag (inferred from metal chelate purification); made in house; host or cells: Sf9 insect cells (baculovirus)

[3] = molecular target: T3, Human recombinant PDE10A (hPDE10A) (Homo sapiens, UniProt Q9Y233); assay: In vitro assay PDE10A, human clone (SPA, 3H-cAMP hydrolysis); type: biochemical
T3 construct: His tag (inferred from metal chelate purification); made in house; host or cells: Sf9 insect cells (baculovirus)
In short: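 Hydrolysis of 3H-cAMP (60 nM cAMP, 0.008 μCi tracer) proceeded for 60 min at room temperature, with the product detected by SPA bead scintillation counting. The enzyme was hPDE10A from baculovirus-infected Sf9 cells in Tris pH 7.8 buffer with MgCl2 and EGTA, and compounds were at 1% DMSO final. Blanks lacked enzyme.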

[4] = molecular target: T4, Human recombinant PDE3A (hPDE3A) (Homo sapiens, UniProt Q14432); assay: In vitro assay PDE3A (SPA, 3H-cAMP hydrolysis); type: biochemical; details: for IC50: hPDE3B pIC50, read-out: pIC50 (converted); for Emax: read-out: hPDE3B Emax, read-out: Emax;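 as to all read-outs here: the method names PDE3A and the table heading PDE3B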
T4 construct: purchased Scottish Biomedical; host or cells: Sf9 insect cells
In short: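 Radiometric SPA measuring [3H]-cAMP hydrolysis (0.4 μM cAMP, 2.4 μCi/ml) over 60 min at room temperature, in Tris pH 7.8 buffer with MgCl2 and EGTA, 1% DMSO. Enzyme: recombinant human brain PDE3A expressed in Sf9 cells, used as partially purified lysate. Counts compared with enzyme-free blanks and vehicle controls.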

[5] = human recombinant PDE2A, 10 μM cGMP substrate, read-out: hPDE2A pIC50 (converted)
[6] = read-out: hPDE2A pIC50 (converted)
[7] = human clone (h), default, read-out: hPDE10A2 Emax
[8] = human clone (h), default, read-out: hPDE10A2 pIC50 (converted)
[9] = human clone by default (no (r) mark), read-out: hPDE10A2 or rPDE10A2 Emax
[10] = human clone by default (no (r) mark), read-out: hPDE10A2 or rPDE10A2 pIC50 (converted)

T4 sequence (Q14432 whole entry): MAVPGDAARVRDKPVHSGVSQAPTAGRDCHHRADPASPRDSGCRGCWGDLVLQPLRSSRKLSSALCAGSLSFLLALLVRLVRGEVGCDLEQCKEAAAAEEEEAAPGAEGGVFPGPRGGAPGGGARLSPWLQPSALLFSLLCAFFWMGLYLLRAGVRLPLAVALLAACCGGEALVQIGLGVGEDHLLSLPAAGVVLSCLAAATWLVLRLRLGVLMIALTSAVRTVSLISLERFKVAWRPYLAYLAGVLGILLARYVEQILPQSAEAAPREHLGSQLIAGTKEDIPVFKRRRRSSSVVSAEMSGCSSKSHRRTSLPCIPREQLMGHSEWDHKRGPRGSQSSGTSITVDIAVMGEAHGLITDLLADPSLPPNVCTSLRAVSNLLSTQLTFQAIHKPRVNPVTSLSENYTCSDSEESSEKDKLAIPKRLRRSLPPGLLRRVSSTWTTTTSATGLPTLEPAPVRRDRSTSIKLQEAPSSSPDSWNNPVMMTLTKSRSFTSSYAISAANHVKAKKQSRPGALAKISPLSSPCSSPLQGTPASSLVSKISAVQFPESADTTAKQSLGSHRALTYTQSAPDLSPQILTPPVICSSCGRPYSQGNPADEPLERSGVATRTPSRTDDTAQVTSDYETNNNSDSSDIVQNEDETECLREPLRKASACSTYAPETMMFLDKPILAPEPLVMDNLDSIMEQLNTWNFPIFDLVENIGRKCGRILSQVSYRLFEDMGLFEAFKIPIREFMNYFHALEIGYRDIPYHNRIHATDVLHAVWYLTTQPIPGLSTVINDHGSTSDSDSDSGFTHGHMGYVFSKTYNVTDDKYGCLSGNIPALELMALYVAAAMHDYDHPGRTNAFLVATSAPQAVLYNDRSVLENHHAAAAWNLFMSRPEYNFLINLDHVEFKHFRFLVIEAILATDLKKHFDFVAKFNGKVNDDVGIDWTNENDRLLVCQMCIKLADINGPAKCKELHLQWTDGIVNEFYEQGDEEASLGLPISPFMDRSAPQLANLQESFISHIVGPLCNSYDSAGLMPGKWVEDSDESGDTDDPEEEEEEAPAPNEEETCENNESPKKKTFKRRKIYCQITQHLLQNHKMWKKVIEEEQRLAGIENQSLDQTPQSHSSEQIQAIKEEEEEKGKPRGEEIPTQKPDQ
T2 sequence (O00408 whole entry): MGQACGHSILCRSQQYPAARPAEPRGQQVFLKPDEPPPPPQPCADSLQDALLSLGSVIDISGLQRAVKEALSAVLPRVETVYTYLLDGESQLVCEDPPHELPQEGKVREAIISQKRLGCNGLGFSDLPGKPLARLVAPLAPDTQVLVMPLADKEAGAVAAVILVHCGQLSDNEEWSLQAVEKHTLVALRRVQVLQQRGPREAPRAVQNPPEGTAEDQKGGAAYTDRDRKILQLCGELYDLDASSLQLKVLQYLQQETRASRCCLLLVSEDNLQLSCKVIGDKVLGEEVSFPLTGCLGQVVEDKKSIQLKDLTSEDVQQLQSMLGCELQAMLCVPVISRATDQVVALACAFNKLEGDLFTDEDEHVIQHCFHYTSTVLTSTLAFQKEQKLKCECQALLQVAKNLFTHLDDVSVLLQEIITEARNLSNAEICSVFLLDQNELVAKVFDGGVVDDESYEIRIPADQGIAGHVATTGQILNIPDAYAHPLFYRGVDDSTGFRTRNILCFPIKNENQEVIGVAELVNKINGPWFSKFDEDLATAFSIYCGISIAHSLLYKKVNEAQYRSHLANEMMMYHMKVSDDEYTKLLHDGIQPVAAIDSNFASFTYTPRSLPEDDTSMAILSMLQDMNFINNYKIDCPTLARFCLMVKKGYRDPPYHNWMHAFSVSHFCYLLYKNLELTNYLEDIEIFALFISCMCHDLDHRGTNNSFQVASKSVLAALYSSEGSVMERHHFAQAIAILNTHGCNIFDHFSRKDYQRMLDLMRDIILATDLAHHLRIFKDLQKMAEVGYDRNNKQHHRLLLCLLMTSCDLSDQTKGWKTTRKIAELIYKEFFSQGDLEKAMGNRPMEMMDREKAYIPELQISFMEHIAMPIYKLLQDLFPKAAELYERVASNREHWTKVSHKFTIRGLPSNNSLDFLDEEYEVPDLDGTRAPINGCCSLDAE
T3 sequence (Q9Y233 267-1055): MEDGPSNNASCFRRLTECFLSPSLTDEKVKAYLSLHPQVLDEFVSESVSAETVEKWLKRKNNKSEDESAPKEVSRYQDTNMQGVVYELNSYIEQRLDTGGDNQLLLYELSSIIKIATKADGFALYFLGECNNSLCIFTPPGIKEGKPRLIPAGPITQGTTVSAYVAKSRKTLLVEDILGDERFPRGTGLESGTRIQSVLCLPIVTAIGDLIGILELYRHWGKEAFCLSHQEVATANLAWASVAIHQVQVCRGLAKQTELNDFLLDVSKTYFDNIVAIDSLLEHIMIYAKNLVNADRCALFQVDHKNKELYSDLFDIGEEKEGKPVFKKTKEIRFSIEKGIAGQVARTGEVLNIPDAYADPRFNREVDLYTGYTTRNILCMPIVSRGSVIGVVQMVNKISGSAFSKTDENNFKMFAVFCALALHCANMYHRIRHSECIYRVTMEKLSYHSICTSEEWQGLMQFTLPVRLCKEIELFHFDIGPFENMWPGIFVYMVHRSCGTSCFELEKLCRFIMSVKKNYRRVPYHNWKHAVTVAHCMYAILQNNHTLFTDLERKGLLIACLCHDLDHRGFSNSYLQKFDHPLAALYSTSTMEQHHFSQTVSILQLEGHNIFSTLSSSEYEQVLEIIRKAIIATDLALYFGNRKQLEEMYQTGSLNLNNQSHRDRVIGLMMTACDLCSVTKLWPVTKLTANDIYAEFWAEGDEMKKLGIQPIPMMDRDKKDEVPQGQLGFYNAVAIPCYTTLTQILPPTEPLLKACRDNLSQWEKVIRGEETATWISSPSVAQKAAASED

| Structure (SMILES) | ED50 ([1]; route PO (oral)) | receptor occupancy at 10 mg/kg ([1]; sc, route SC (subcutaneous)) | IC50 [2, 5] | Emax ([2]; human recombinant PDE2A) | Emax [2] | IC50 [2, 6] | hPDE10A2 Emax ([3]; human clone (h), default) | Emax [3, 7] | IC50 [3, 8] | IC50 [4] | Emax [4] | IC50 ([2]; hPDE2A pIC50) | IC50 ([2]; hPDE2A pIC50, human recombinant PDE2A, 10 μM cGMP substrate) | receptor occupancy at 10 mg/kg ([1]; route PO (oral)) | Emax [3, 9] | IC50 [3, 10] | receptor occupancy at 10 mg/kg ([1]; po, route PO (oral)) | receptor occupancy at 10 mg/kg ([1]; route SC (subcutaneous)) |
| --- | --- | --- | --- | --- | --- | --- | --- | --- | --- | --- | --- | --- | --- | --- | --- | --- | --- | --- |
| Cc1cc(C(=O)N2CC[C@@H](C)[C@H](c3cc(C(F)F)nc4ncnn34)C2)c(F)c(C)n1 [Compound 70] | 6.4 mg/kg | 65% | 1.74 nM | 102% | 102% | 1.95 nM | 95 | 93% | 331 nM and 380 nM | 5130 nM | 66% | – | – | – | – | – | – | – |
| Cc1cc([C@H]2CN(C(=O)c3ccc4ncsc4c3)CC[C@@H]2C)n2ncnc2n1 [Compound 2b] | – | 3% | – | – | 100% | – | – | 95% | 269 nM | > 10000 nM | 31% | 19.1 nM | 19.1 nM | – | – | – | – | – |
| O=C(c1ccc2ncccc2c1)N1[C@H]2CC[C@H](c3cc(C(F)F)nc4ncnn34)[C@@H]1CC2 [Compound 311] | – | – | – | – | 96% | 1.1 nM | – | – | – | 7410 nM | 62% | – | – | -1% | 96% | 427 nM | – | – |
| Cc1cc([C@@H]2CN(C(=O)c3cc(C)c(F)c(C)c3)CC[C@H]2C)n2ncnc2n1 [Compound 117] | – | – | – | – | 100% | – | – | 99% | 9.77 nM | 851 nM | 97% | 1.15 nM | – | – | – | – | 8% | – |
| O=C(c1ccc2cccn2c1)N1[C@H]2CC[C@H](c3cc(C(F)F)nc4ncnn34)[C@@H]1CC2 [Compound 291] | – | – | – | – | 101% | 2.69 nM | – | – | – | 2630 nM | 86% | – | – | 38% | 95% | 513 nM | – | – |
| COc1cc(C(=O)N2CC[C@@H](C)[C@H](c3cc(C)nc4ncnn34)C2)c(C(F)(F)F)cn1 [Compound 37] | – | – | – | – | 100% | 17.4 nM | – | 93% | 427 nM | 8910 nM | 52% | – | – | – | – | – | -13% | – |
| COc1ncc(C)cc1C(=O)N1CC[C@@H](C)[C@H](c2cc(C(F)F)nc3ncnn23)C1 [Compound 272] | – | – | – | – | 102% | 2.19 nM | – | 93% | 794 nM | 8910 nM | 54% | – | – | – | 93% | 794 nM | 3% | – |
| Cc1c(C(=O)N2[C@H]3CC[C@H](c4cc(C(F)F)nc5ncnn45)[C@@H]2CC3)oc2ccccc12 [Compound 273] | – | – | – | – | 100% | 2.34 nM | – | 96% | 977 nM | 813 nM | 96% | – | – | – | 96% | 977 nM | – | 65% |
| COc1cc(C(=O)N2CC[C@@H](C)[C@H](c3cc(C(F)F)nc4ncnn34)C2)nc2ccccc12 [Compound 125] | – | – | 2.09 nM | 100% | 100% | 2.09 nM | – | 96% | 589 nM | 589 nM | 96% | – | – | – | – | – | -16% | – |
| COc1cc(C(=O)N2CC[C@@H](C)[C@H](c3cc(C(F)F)nc4ncnn34)C2)c(F)cn1 [Compound 36] | 45.2 mg/kg | – | – | – | 100% | 2.75 nM | – | 93% | 468 nM | 3980 nM | 64% | – | – | – | – | – | 32% | – |
| COc1nc(N)ncc1C(=O)N1CC[C@@H](C)[C@H](c2cc(C(F)F)nc3ncnn23)C1 [Compound 38] | – | – | 6.17 nM | 100% | 100% | 6.17 nM | – | 80% | 2290 nM | > 10000 nM | 43% | – | – | – | – | – | 1% | – |
| C[C@@H]1CCN(C(=O)c2cc(OC(F)F)cc(C3CC3)c2)C[C@H]1c1cc(C(F)F)nc2ncnn12 [Compound 91] | – | – | 0.372 nM | 100% | 100% | 0.372 nM | – | 94% | 22.4 nM | 708 nM | 61% | – | – | – | – | – | -7% | – |
